{
  "source": "patent US12544394B2",
  "about": "“Compositions and methods for treatment of fibrosis” (priority 2017, dated 2026)",
  "origin": "cited, not measured here",
  "key": {"[1]": {"test_system": "NASH", "details": "patients with biopsy proven NASH, oral vitamin E supplementation"}, "[2]": {"test_system": "steatosis", "details": "vitamin E 400-1000 IU/day for 4-10 months"}, "[3]": {"details": "humans, oral route of administration"}, "[4]": {"test_system": "liver fibrosis", "details": "DLPC fed in chow (U.S. Pat. No. 5,284,835)"}},
  "data": [
    {"molecule": "Cc1c(C)c2c(c(C)c1O)CC[C@@](C)(CCC[C@H](C)CCC[C@H](C)CCCC(C)C)O2", "note": "[vitamin E, Alpha-tocopherol]", "values": [
      {"measurement": "liver histology outcome", "setting": "[1]", "value": "improvement in hepatic steatosis and lobular inflammation but not portal inflammation or fibrosis"},
      {"measurement": "mean AST levels after treatment", "setting": "[2]; decreased from 104.+−.61 IU/L, P<0.002", "value": "33.+−.11 IU/L"},
      {"measurement": "mean ALT levels after treatment", "setting": "[2]; decreased from 175.+−.106 IU/L, P<0.01", "value": "40.+−.26 IU/L"}
    ]},
    {"molecule": "CCCCCCCCCCCC(=O)OC[C@H](COP(=O)([O-])OCC[N+](C)(C)C)OC(=O)CCCCCCCCCCC", "note": "[DLPC, 1,2-dilauroyl-sn-glycero-3-phosphocholine]", "values": [
      {"measurement": "clinical effect", "setting": "[3]", "value": "no significant clinical effect"},
      {"measurement": "liver fibrosis", "setting": "[4]", "value": "slow liver fibrosis"}
    ]}
  ]
}
